# Assay results: US8680153B2, “Method for correcting a lipid imbalance in a subject” (The Royal Institution for the Advancement of …, priority 2005, dated 2014)
# “And” between values parts separate entries of the source, which are not always exact repeats. Equal entries are not always repeated.
# Tests used:
# [1] = test system: ceramide levels; experiment: Ceramide levels by ELISA in lung and plasma of uninfected mice, fenretinide diet supplementation; format: in vivo; conditions: 5 mg/kg per day in diet, 28 days, 5 mg/kg/day
# From the text: Animals. Inbred C57BL/6-Cftr mice breeding pairs, heterozygous (HZ) at the Cftr locus, were used. All babies were genotyped between days 12 and 14 of their life. The animals were kept in cages with sterile corn bedding (Anderson, Bestmonro, La.) and maintained in ventilated racks (Lab Products). Mice were fed with either the NIH-31-modified irradiated mouse diet (Harlan Teklad, Indianapolis, Ind.) or a liquid diet starting at 14 days of age (Peptamen liquid diet; Nestle Canada, Brampton, ON). The liquid diet were freshly prepared every morning and provided in 50-mL centrifuge tubes (Fisher Scientific Ltd, Nepean, ON). Age- and gender-matched C57BL/6-Cftr+/+ (wild-type) mice, (female; n=10, male; n=31) and C57BL/6-Cftr−/− (Cftr-KO) mice (female; n=8, male; n=18) were murine pathogen-, Helicobacter- and parasite-free. They were housed (1-4 animals/cage), bred and maintained in a barrier facility unit under specific pathogen-free conditions. Experimental procedures with the mice were conducted in accordance with the Canadian Council on Animal Care guidelines and with the approval of the Animal Care Committee of the McGill University Health Center, Montreal, Quebec, Canada.
# (§1) Fenretinide Diet Supplementation. Examples 2 to 6: fenretinide (Sigma-Aldrich, Oakville, ON) powder was resuspended in 95% ethanol and subsequently incorporated in the Peptamen liquid diet. It was protected from light and kept at 4° C. before being given to the mice (5 mg/kg per day per mouse). Mock-treated diets were prepared similarly by adding ethanol to the Peptamen diet but omitting the fenretinide supplementation. The diet was given every morning for 28 consecutive days with specific monitoring of the quantity consumed by the mice in each cage. Examples 7 to 12: fenretinide powder was kindly provided by Dr. Robert Smith (NIH; Bethesda, Md., USA). Fenretinide was resuspended in 95% ethanol to make a 2 μg/μL concentration. Approximately 40 μL of this preparation was incorporated into the Peptamen liquid diet (5 mg/kg per day per mouse). The prepared food containing fenretinide was then stored in the dark at 4° C. for no more than 3 hours prior to being administered to the mice. To ensure that the entire drug dose was consumed, the mice were given 10 mL of fenretinide-treated Peptamen, which represents ⅔ of the daily mouse food consumption, in the late afternoon. The remaining 5 mL of Peptamen (without fenretinide) was given the following morning. Mice were treated twice a week for 4 weeks. During the treatment period each mouse was kept in a separate cage (including WT mice) and was monitored to ensure that the entire amount of Peptamen containing the fenretinide or with out was consumed. The diet for the mock-treated control group was prepared and administered similarly to that described above, by adding the same volume of ethanol to the Peptamen diet but omitting the fenretinide supplementation.
# Ceramide/Sphingolipids analysis. The concentration of ceramide in the (lung, liver, ileum, pancreas homogenates) and plasma from mice and humans were determined by ELISA^39;40 on separated lipids samples by thin layer chromatography, as described above. The phospholipids from the dry silica were resuspended in ethanol and used to coat Nunc plates specific for lipid binding. Plates were then washed, incubated with blocking buffer for 1 hr at 37° C. […]
# [2] = Weight loss after P. aeruginosa lung infection; format: in vivo, mice; conditions: for Mean weight loss (% of initial weight): mean ± SEM
# Description: as §1
# Mouse Lung Infection. Mice were anaesthetized with a combination of ketamine (7.5 mg/mL) and xylazine (0.5 mg/mL) administered intraperitoneally at a dose of 20 mL/kg of body weight. Once the mouse was successfully anaesthetized, the animal was installed under binoculars (Microscope M650, Wild Leitz, Willowdale, ON) in the vertical position and held on a restraining board by holding the animal by its upper incisor teeth (Guilbault, et al. (2005) supra). The tongue was then gently pulled to the side of the mouth and a 26-G gavage needle was inserted into the mouth and guided through the pharynx gently touching the vocal cords to see the lumen of the trachea; the needle was then introduced into the trachea to reach the lung for the bilateral injection of the 50 microliter inoculum. After inoculation, the animal regained righting reflex within an hour. A final dose of 1×10^6 P. aeruginosa was used for infection using wild-type and Cftr-KO mice. Mice were monitored 3 times daily; the maximum weight loss allowed was 15%. Mice were sacrificed by CO2 overdose.
# [3] = test system: P. aeruginosa; experiment: Bacterial load (CFU) in the lungs of infected mice; format: in vivo
# Description: P. aeruginosa Inoculum Preparation. In order to establish a model of prolonged lung infection, bacteria-impregnated agar beads were freshly prepared the day before each experiment according to established methods (Guilbault, et al. (2005) Laboratory Animals 39:336-352), and stored at 4° C. overnight. Briefly, the bacteria (P. aeruginosa strain 508) from an overnight culture were grown for approximately 3 hours in a shaking incubator at 37° C., until it reached a mid-log phase. The log-phase bacteria were concentrated and resuspended in 5 mL of Dulbecco's phosphate-buffered saline (PBS; INVITROGEN™, Mississauga, ON). A 5 mL aliquot of the concentrated bacterial broth was added to 52° C. 1.5% trypticase soy agar (DIFCO®, Detroit, Mich.) (agarose beads free of bacteria were prepared using PBS instead of a bacterial suspension). This mixture was quickly added to 52° C. heavy mineral oil and stirred rapidly, first at room temperature for 6 minutes, followed by ice cooling with continuous stirring for 10 minutes. The oil-agar mixture was centrifuged to sediment the beads. The beads were washed with PBS and their size was verified microscopically and only those preparations containing beads predominantly 100-250 micrometers in diameter were used as inoculum. Inoculum was prepared by diluting the beads suspension to 1×10^6 CFUs per 50 μl (injection volume).
# Mouse Lung Infection. Mice were anaesthetized with a combination of ketamine (7.5 mg/mL) and xylazine (0.5 mg/mL) administered intraperitoneally at a dose of 20 mL/kg of body weight. Once the mouse was successfully anaesthetized, the animal was installed under binoculars (Microscope M650, Wild Leitz, Willowdale, ON) in the vertical position and held on a restraining board by holding the animal by its upper incisor teeth (Guilbault, et al. (2005) supra). […] Mice were monitored 3 times daily; the maximum weight loss allowed was 15%. […]
# Lung Homogenates. […] The number of CFU per lung was counted after overnight incubation at 37° C. […]
# [4] = Cftr-KO mice, day 3 post-infection
smiles,measurement,setting,value
"CC1=C(/C=C/C(C)=C/C=C/C(C)=C/C(=O)Nc2ccc(O)cc2)C(C)(C)CCC1 [fenretinide, all-trans-N-(4-hydroxyphenyl) retinamide]","Ceramide levels, fold-increase (FEN-treated over CTRL), Lung",[1]; Cftr-KO mice,7.0 fold and 7.0 (n = 3) fold
same,"Ceramide levels, fold-increase (FEN-treated over CTRL), Plasma",[1]; Cftr-KO mice,6.9 fold and 6.9 (n = 3) fold
same,"Ceramide levels, fold-increase (FEN-treated over CTRL), Lung",[1]; HZ mice,2.1 fold and 2.1 (n = 3) fold
same,"Ceramide levels, fold-increase (FEN-treated over CTRL), Plasma",[1]; HZ mice,2.7 fold and 2.7 (n = 3) fold
same,"Ceramide levels, fold-increase (FEN-treated over CTRL), Lung",[1]; WT mice,1.4 fold and 1.4 (n = 10) fold
same,"Ceramide levels, fold-increase (FEN-treated over CTRL), Plasma",[1]; WT mice,1.6 fold and 1.6 (n = 12) fold
same,Mean weight loss (% of initial weight),"[2]; Cftr-KO mice, day 1 post-infection",−4.0 ± 1.1 % of initial weight
same,Mean weight loss (% of initial weight),"[2]; Cftr-KO mice, day 2 post-infection",−12.9 ± 0.9 % of initial weight
same,Mean weight loss (% of initial weight),[2]; [4],−15.3 ± 1.8 % of initial weight
same,Mean weight loss (% of initial weight),"[2]; Wild-type mice, day 1 post-infection",−4.8 ± 0.4 % of initial weight
same,Mean weight loss (% of initial weight),"[2]; Wild-type mice, day 2 post-infection",−9.9 ± 0.5 % of initial weight
same,Mean weight loss (% of initial weight),"[2]; Wild-type mice, day 3 post-infection",−11.1 ± 1.2 % of initial weight
same,"Effect on mean weight loss, fenretinide-treated vs mock-treated",[2]; day 1 to day 3 post-infection,no significant difference
same,Decrease of median number of bacteria vs untreated Cftr-KO,[3]; [4],about 10 fold
same,Median bacterial load in the lungs,"[3]; fenretinide-treated Cftr-KO mice, day 3 post-infection, p=0.004 vs untreated",3.8×10^4 CFU/lung
same,Effect on median number of bacteria in the lungs vs untreated infected controls,"[3]; wild-type mice, p=0.240",no significant effect
